Measurements as given in PubChem BioAssay (NCI).
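These data come from cells grown in 96-well plates and exposed to compound for 48 hours at five concentrations. Here, GI50 denotes the concentration required for 50% inhibition of growth. At the TGI there is no net growth.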

Assays:
Test in all cases: inhibition of tumour cell growth, NCI panel, 48 h
T-47D breast = system: T-47D breast
TK-10 renal = system: TK-10 renal
ACHN renal = system: ACHN renal
SW-620 colon = system: SW-620 colon
HS 578T breast = system: HS 578T breast
MALME-3M melanoma = system: MALME-3M melanoma
PC-3 prostate = system: PC-3 prostate
MOLT-4 leukemia = system: MOLT-4 leukemia
COLO 205 colon = system: COLO 205 colon
A549 NSCLC = system: A549 NSCLC
NCI-H522 lung = system: NCI-H522 lung
HOP-62 NSCLC = system: HOP-62 NSCLC
IGROV1 ovarian = system: IGROV1 ovarian
U251 CNS = system: U251 CNS
MDA-MB-231 breast = system: MDA-MB-231 breast
MDA-MB-435 = system: MDA-MB-435
SF-295 CNS = system: SF-295 CNS
UACC-62 melanoma = system: UACC-62 melanoma
EKVX NSCLC = system: EKVX NSCLC
786-0 renal = system: 786-0 renal
OVCAR-4 ovarian = system: OVCAR-4 ovarian
HT29 colon = system: HT29 colon
HL-60(TB) leukemia = system: HL-60(TB) leukemia
NCI/ADR-RES ovarian = system: NCI/ADR-RES ovarian
UACC-257 melanoma = system: UACC-257 melanoma
HCC-2998 colon = system: HCC-2998 colon
SK-MEL-2 melanoma = system: SK-MEL-2 melanoma
HCT-15 colon = system: HCT-15 colon
RPMI-8226 leukemia = system: RPMI-8226 leukemia
SF-539 CNS = system: SF-539 CNS
SF-268 CNS = system: SF-268 CNS
SR leukemia = system: SR leukemia
DU-145 prostate = system: DU-145 prostate
NCI-H23 lung = system: NCI-H23 lung
SK-OV-3 ovarian = system: SK-OV-3 ovarian
SK-MEL-5 melanoma = system: SK-MEL-5 melanoma
SNB-19 CNS = system: SNB-19 CNS
SNB-75 CNS = system: SNB-75 CNS
A498 renal = system: A498 renal
BT-549 breast = system: BT-549 breast
CCRF-CEM leukemia = system: CCRF-CEM leukemia
M14 melanoma = system: M14 melanoma
NCI-H226 lung = system: NCI-H226 lung
SK-MEL-28 melanoma = system: SK-MEL-28 melanoma
SN12C renal = system: SN12C renal
OVCAR-3 ovarian = system: OVCAR-3 ovarian
KM12 colon = system: KM12 colon
HOP-92 NSCLC = system: HOP-92 NSCLC
CAKI-1 renal = system: CAKI-1 renal
OVCAR-5 ovarian = system: OVCAR-5 ovarian
OVCAR-8 ovarian = system: OVCAR-8 ovarian
NCI-H460 lung = system: NCI-H460 lung
UO-31 renal = system: UO-31 renal

CN1CCN(c2ccc3nc(-c4ccc5nc(-c6ccc(OCCC(C)(C)C)cc6)[nH]c5c4)[nH]c3c2)CC1
GI50 (T-47D breast): 14.2 µM | TGI (T-47D breast): 41.1 µM | GI50 (TK-10 renal): 18.2 µM | TGI (TK-10 renal): 38.8 µM | GI50 (ACHN renal): 9.2 µM | TGI (ACHN renal): 22.8 µM | GI50 (SW-620 colon): 2.12 µM | TGI (SW-620 colon): 3.96 µM | GI50 (HS 578T breast): 10.5 µM | TGI (HS 578T breast): 37.1 µM | GI50 (MALME-3M melanoma): 12.2 µM | TGI (MALME-3M melanoma): 27.2 µM | GI50 (PC-3 prostate): 2.63 µM | TGI (PC-3 prostate): 5.81 µM | GI50 (MOLT-4 leukemia): 3.12 µM | TGI (MOLT-4 leukemia): 10.7 µM | GI50 (COLO 205 colon): 12.9 µM | TGI (COLO 205 colon): 30 µM | GI50 (A549 NSCLC): 4.69 µM | TGI (A549 NSCLC): 17.7 µM | GI50 (NCI-H522 lung): 13.6 µM | TGI (NCI-H522 lung): 38.1 µM | GI50 (HOP-62 NSCLC): 7.1 µM | TGI (HOP-62 NSCLC): 26.8 µM | GI50 (IGROV1 ovarian): 7.69 µM | TGI (IGROV1 ovarian): 31.6 µM | GI50 (U251 CNS): 2.16 µM | TGI (U251 CNS): 3.81 µM | GI50 (MDA-MB-231 breast): 2.85 µM | TGI (MDA-MB-231 breast): 5.83 µM | GI50 (MDA-MB-435): 1.97 µM | TGI (MDA-MB-435): 3.99 µM | GI50 (SF-295 CNS): 2.34 µM | TGI (SF-295 CNS): 6.22 µM | GI50 (UACC-62 melanoma): 17.3 µM | TGI (UACC-62 melanoma): 40.1 µM | GI50 (EKVX NSCLC): 4.67 µM | TGI (EKVX NSCLC): 21.4 µM | GI50 (786-0 renal): 2.7 µM | TGI (786-0 renal): 8.33 µM | GI50 (OVCAR-4 ovarian): 10.1 µM | TGI (OVCAR-4 ovarian): 25.5 µM | GI50 (HT29 colon): 1.78 µM | TGI (HT29 colon): 4.07 µM | GI50 (HL-60(TB) leukemia): 4.71 µM | TGI (HL-60(TB) leukemia): 29.1 µM | GI50 (NCI/ADR-RES ovarian): 35.7 µM | TGI (NCI/ADR-RES ovarian): > 100 µM | GI50 (UACC-257 melanoma): 20.5 µM | TGI (UACC-257 melanoma): 38.3 µM | GI50 (HCC-2998 colon): 5.06 µM | TGI (HCC-2998 colon): 18.5 µM | GI50 (SK-MEL-2 melanoma): 19.7 µM | TGI (SK-MEL-2 melanoma): 38.5 µM | GI50 (HCT-15 colon): 12.1 µM | TGI (HCT-15 colon): 28.2 µM | GI50 (RPMI-8226 leukemia): 2.86 µM | TGI (RPMI-8226 leukemia): 7.44 µM | GI50 (SF-539 CNS): 11.5 µM | TGI (SF-539 CNS): 26.1 µM | GI50 (SF-268 CNS): 6.58 µM | TGI (SF-268 CNS): 25.4 µM | GI50 (SR leukemia): 2.9 µM | TGI (SR leukemia): 8.05 µM | GI50 (DU-145 prostate): 1.83 µM | TGI (DU-145 prostate): 3.4 µM | GI50 (NCI-H23 lung): 15.1 µM | TGI (NCI-H23 lung): 33 µM | GI50 (SK-OV-3 ovarian): 18 µM | TGI (SK-OV-3 ovarian): 36 µM | GI50 (SK-MEL-5 melanoma): 12.7 µM | TGI (SK-MEL-5 melanoma): 27.6 µM | GI50 (SNB-19 CNS): 2.15 µM | TGI (SNB-19 CNS): 4.09 µM | GI50 (SNB-75 CNS): 3.46 µM | TGI (SNB-75 CNS): 18 µM | GI50 (A498 renal): 17.5 µM | TGI (A498 renal): 35.1 µM | GI50 (BT-549 breast): 17.5 µM | TGI (BT-549 breast): 40.1 µM | GI50 (CCRF-CEM leukemia): 2.72 µM | TGI (CCRF-CEM leukemia): 7.34 µM | GI50 (M14 melanoma): 2.39 µM | TGI (M14 melanoma): 6.53 µM | GI50 (NCI-H226 lung): 23.8 µM | TGI (NCI-H226 lung): 52.2 µM | GI50 (SK-MEL-28 melanoma): 3.03 µM | TGI (SK-MEL-28 melanoma): 9.43 µM | GI50 (SN12C renal): 4 µM | TGI (SN12C renal): 15.4 µM | GI50 (OVCAR-3 ovarian): 5.22 µM | TGI (OVCAR-3 ovarian): 16.8 µM | GI50 (KM12 colon): 1.91 µM | TGI (KM12 colon): 4.2 µM | GI50 (HOP-92 NSCLC): 14.3 µM | TGI (HOP-92 NSCLC): 33.2 µM | GI50 (CAKI-1 renal): 4.15 µM | TGI (CAKI-1 renal): 15.7 µM | GI50 (OVCAR-5 ovarian): 2.96 µM | TGI (OVCAR-5 ovarian): 9.96 µM | GI50 (OVCAR-8 ovarian): 4.69 µM | TGI (OVCAR-8 ovarian): 18.6 µM | GI50 (NCI-H460 lung): 2.13 µM | TGI (NCI-H460 lung): 3.97 µM | GI50 (UO-31 renal): 21.3 µM | TGI (UO-31 renal): 41.8 µM
